In patent publication US7914891B2, “Wipes including microencapsulated delivery vehicles and phase change materials” (Kimberly-Clark Worldwide, Inc., priority 2005, dated 2011):
Where two headings read alike, the source gives them in different places.

Tests used:
[1] = Heat generation after soaking in de-ionized water; assay type: physicochemical; settings: in 7.0 grams de-ionized water; coated samples crushed after 0.5 to 2.0 hours
Procedure: To analyze the samples for heat generation, 0.80 grams of each sample of calcium chloride including a moisture protective layer was added to four separate vials each containing 7.0 grams of de-ionized water and 0.73 grams of the control sample was added to a fifth vial containing 7.0 grams of de-ionized water. Using a J type thermocouple (commercially available from Omega Engineering, Inc., Stamford, Conn.) and a data logger, the temperature of the samples was measured over a period of 180 seconds. The four vials containing the samples of microencapsulated heat delivery vehicle including a moisture protective layer were allowed to remain in the de-ionized water for 0.5 hours, 1.0 hour, 1.5 hours, and 2.0 hours, respectively, at which time the samples were activated by crushing the samples by hand using a metal rod. The temperature of the water in the four vials was measured for a period of 180 seconds after crushing the samples.

[2] = system: Methicillin-resistant Staphylococcus aureus; settings: 22° C. compared to 50° C.; 0.005% active PHMB
Procedure: This Example utilized 1.5-milliliter tubes containing a 1-milliliter blend of phosphate-buffered saline (pH 7.2) and 5% (w/v) bovine serum albumin soil. The tubes were placed in electric heat blocks set for 22° C., 30° C., 40° C. and 50° C., respectively. The tubes remained in the electric heat blocks for approximately 10 minutes.
After 10 minutes, 0.005% (by weight) active polyhexamehtylene biguanide (PHMB) (commercially available as Cosmocil® CQ from Arch Biocides, Inc., United Kingdom) was added to two tubes at each temperature level. Duplicate tubes without PHMB at each temperature were also made.
The tubes were then vortexed and Methicillin-resistant Staphylococcus aureus (approximately 1×10^5 colony forming units (CFU)) was then added to each tube. All of the tubes were then placed back into the heat blocks at their respective temperatures.
Following a 10-minute contact time, 0.1 milliliters of each sample was transferred to 0.9 milliliters letheen broth to neutralize the PHMB activity. The letheen samples were then plated in duplicate on Tryptic Soy agar plates using a WASP2 spiral plater (commercially available from Don Whitley Scientific, Ltd., Yorkshire, United Kingdom). The plates were inverted and incubated at 37±2° C. for 48 hours.
After 48 hours, the plates were evaluated using a total plate count to determine the biocidal efficacy of each sample.

[3] = 35 wt % in mineral oil, added to 7.0 grams de-ionized water
Procedure: All five samples were then individually added to 7.0 grams de-ionized water and the resulting temperature rise was measured using a Barnant Scanning Thermocouple (available from Therm-X of California, Hayward, Calif.).
All four samples were then added to 7.0 grams de-ionized water and the resulting temperature rise was measured using a J type Thermocouple (available from Omega Engineering, Inc., Stamford, Conn.).

In the case of `[Ca+2].[Cl-].[Cl-]` [Example 11 control sample, calcium chloride], the “heat generation after contact with water” value [1] is reported as “produced heat immediately upon being introduced into water but only for a short period of time”.
For polyhexamethylene biguanide [PHMB], the “LOG10 difference in efficacy” value [2] was “greater than 1.4 LOG10”.
With `[Cl-].[Cl-].[Mg+2]` [anhydrous magnesium chloride, magnesium chloride] the “rate of heat generation” value ([3]; particle size less than 250 micrometers vs three other size ranges) was “generated heat at the highest rate”.
For `[Ca+2].[Cl-].[Cl-]` [anhydrous calcium chloride, calcium chloride], the “rate of heat generation” value ([3]; particle size 149-355 micrometers vs four other size ranges) was “generated heat at the highest rate”.
